Assay results as given in patent US12637473B2, “MDM2 protein degraders” (THE REGENTS OF THE UNIVERSITY OF MICHIGAN, priority 2016, dated 2026).

tested on: RS4; 11 cell line; assay: CellTiter-Glo Luminescent Cell Viability Assay, cell growth inhibition; assay type: cell-based; conditions: Homo sapiens, 96 h, 4 days
Description: Cell growth inhibitory activity of representative MDM2 protein degraders was determined using CellTiter-Glo® Luminescent Cell Viability Assay. Cells were seeded in 384-well white opaque cell culture plates at a density of 2,000 cells/well with serially diluted compounds and incubated at 37° C. in an atmosphere of 95% air and 5% CO2 for 4 days. Cell viability was determined using the CellTiter-Glo® Luminescent Cell Viability Assay Kit (Promega, Madison, WI) according to the manufacture's instruction. Briefly, a volume of CellTiter-Glo® Reagent equal to the volume of cell culture medium was added to each well, and then the plates were incubated at room temperature for 10-20 minutes. The luminescent signal was measured using a Tecan Infinite M1000 multimode microplate reader (Tecan, Morrisville, NC). The half maximal inhibitory concentration (IC50) was calculated using the GraphPad Prism 5 software (GraphPad Software, La Jolla, CA). Cpd. […] The structure of Cpd.

| Compound | IC50 [nM] |
| --- | --- |
| O=C1CCC(N2Cc3c(NC(=O)CCCCNC(=O)c4ccc(NC(=O)[C@@H]5NC6(CCCCC6)[C@@]6(C(=O)Nc7cc(Cl)ccc76)[C@H]5c5cccc(Cl)c5F)cc4)cccc3C2=O)C(=O)N1 (stereo partly drawn) [Cpd. No. 28, (3′R,4'S,5′R)-6″-chloro-4′-(3-chloro-2-fluorophenyl)-N-(4-((5-((2-(2,6-dioxopiperidin-3-yl)-1-oxoisoindolin-4-yl)amino)-5-oxopentyl)carbamoyl)phenyl)-2″-oxodispiro[cyclohexane-1,2′-pyrrolidine-3′,3″-indoline]-5′-carboxamide] | 7 |
| Cc1ncsc1-c1ccc(CNC(=O)[C@@H]2C[C@@H](O)CN2C(=O)[C@@H](NC(=O)CCOCCOCCOCCNC(=O)c2ccc(NC(=O)[C@@H]3NC4(CCCCC4)[C@@]4(C(=O)Nc5cc(Cl)ccc54)[C@H]3c3cccc(Cl)c3F)cc2)C(C)(C)C)cc1 [compound 43] | 445 |
| O=C1CCC(N2Cc3c(NC(=O)CCOCCOCCOCCNC(=O)c4ccc(NC(=O)[C@@H]5NC6(CCCCC6)[C@@]6(C(=O)Nc7cc(Cl)ccc76)[C@H]5c5cccc(Cl)c5F)cc4)cccc3C2=O)C(=O)N1 (stereo partly drawn) [Cpd. No. 30, (3′R,4'S,5′R)-6″-chloro-4′-(3-chloro-2-fluorophenyl)-N-(4-((2-(2-(2-(3-((2-(2,6-dioxopiperidin-3-yl)-1-oxoisoindolin-4-yl)amino)-3-oxopropoxy)ethoxy)ethoxy)ethyl)carbamoyl)phenyl)-2″-oxodispiro[cyclohexane-1,2′-pyrrolidine-3′,3″-indoline]-5′-carboxamide] | 13 |
| Cc1ncsc1-c1ccc(CNC(=O)[C@@H]2C[C@@H](O)CN2C(=O)[C@@H](NC(=O)CCCCNC(=O)c2ccc(NC(=O)[C@@H]3NC4(CCCCC4)[C@@]4(C(=O)Nc5cc(Cl)ccc54)[C@H]3c3cccc(Cl)c3F)cc2)C(C)(C)C)cc1 [compound 41] | 991 |

Compounds with a lower IC50, results first:

| IC50 [nM] | Compound |
| --- | --- |
| 5.2 | CC1(C)CCC2(CC1)N[C@@H](C(=O)Nc1ccc(C(=O)NCCCOCCOCCOCCCNc3cccc4c3C(=O)N(C3CCC(=O)NC3=O)C4=O)cc1)[C@H](c1cccc(Cl)c1F)[C@]21C(=O)Nc2cc(Cl)ccc21 (stereo partly drawn) [Cpd. No. 53, (3′R,4'S,5′R)-6″-chloro-4′-(3-chloro-2-fluorophenyl)-N-(4-((3-(2-(2-(3-((2-(2,6-dioxopiperidin-3-yl)-1,3-dioxoisoindolin-4-yl)amino)propoxy)ethoxy)ethoxy)propyl)carbamoyl)phenyl)-4,4-dimethyl-2″-oxodispiro[cyclohexane-1,2′-pyrrolidine-3′,3″-indoline]-5′-carboxamide] |
| 2.9 | O=C1CCC(N2Cc3c(CCCOCCNC(=O)c4ccc(NC(=O)[C@@H]5NC6(CCCCC6)[C@@]6(C(=O)Nc7cc(Cl)ccc76)[C@H]5c5cccc(Cl)c5F)cc4)cccc3C2=O)C(=O)N1 (stereo partly drawn) [Cpd. No. 33, (3′R,4'S,5′R)-6″-chloro-4′-(3-chloro-2-fluorophenyl)-N-(4-((2-(3-(2-(2,6-dioxopiperidin-3-yl)-1-oxoisoindolin-4-yl)propoxy)ethyl)carbamoyl)phenyl)-2″-oxodispiro[cyclohexane-1,2′-pyrrolidine-3′,3″-indoline]-5′-carboxamide] |
| 1.5 | CC1(C)CCC2(CC1)N[C@@H](C(=O)Nc1ccc(C(=O)NCCOCCOCCNc3cccc4c3C(=O)N(C3CCC(=O)NC3=O)C4=O)cc1)[C@H](c1cccc(Cl)c1F)[C@]21C(=O)Nc2cc(Cl)ccc21 (stereo partly drawn) [Cpd. No. 52, (3′R,4'S,5′R)-6″-chloro-4′-(3-chloro-2-fluorophenyl)-N-(4-((2-(2-(2-((2-(2,6-dioxopiperidin-3-yl)-1,3-dioxoisoindolin-4-yl)amino)ethoxy)ethoxy)ethyl)carbamoyl)phenyl)-4,4-dimethyl-2″-oxodispiro[cyclohexane-1,2′-pyrrolidine-3′,3″-indoline]-5′-carboxamide] |
